EC50 and Emax data for 18 compounds are collected here from patent US9834542B2, “LXR modulators” (BRISTOL-MYERS SQUIBB COMPANY, priority 2013, dated 2017).

The assay addresses T1, LXRβ (Homo sapiens, UniProt P55055).
T1 construct: Co-transfection expression plasmids, comprising full-length LXRα (pCMX-h LXRα[…] or LXRβ (pCMX-hLXRβ)); expressed in transfected cells; host or cells: CV-1 African Green Monkey Kidney Cells
T1 sequence (P55055 1-460): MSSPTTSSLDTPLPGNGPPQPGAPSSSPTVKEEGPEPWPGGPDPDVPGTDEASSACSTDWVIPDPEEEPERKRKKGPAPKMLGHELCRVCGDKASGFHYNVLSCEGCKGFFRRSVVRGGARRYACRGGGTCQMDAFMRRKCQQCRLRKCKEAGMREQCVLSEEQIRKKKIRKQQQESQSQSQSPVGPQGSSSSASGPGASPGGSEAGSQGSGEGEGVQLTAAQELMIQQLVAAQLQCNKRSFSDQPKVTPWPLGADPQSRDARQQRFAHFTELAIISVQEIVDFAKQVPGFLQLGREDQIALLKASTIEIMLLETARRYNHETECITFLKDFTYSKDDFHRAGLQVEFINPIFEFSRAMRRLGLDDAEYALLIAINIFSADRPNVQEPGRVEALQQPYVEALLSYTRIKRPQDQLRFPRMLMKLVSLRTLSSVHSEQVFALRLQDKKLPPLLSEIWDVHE
T1 sequence (P19793 1-462 partner): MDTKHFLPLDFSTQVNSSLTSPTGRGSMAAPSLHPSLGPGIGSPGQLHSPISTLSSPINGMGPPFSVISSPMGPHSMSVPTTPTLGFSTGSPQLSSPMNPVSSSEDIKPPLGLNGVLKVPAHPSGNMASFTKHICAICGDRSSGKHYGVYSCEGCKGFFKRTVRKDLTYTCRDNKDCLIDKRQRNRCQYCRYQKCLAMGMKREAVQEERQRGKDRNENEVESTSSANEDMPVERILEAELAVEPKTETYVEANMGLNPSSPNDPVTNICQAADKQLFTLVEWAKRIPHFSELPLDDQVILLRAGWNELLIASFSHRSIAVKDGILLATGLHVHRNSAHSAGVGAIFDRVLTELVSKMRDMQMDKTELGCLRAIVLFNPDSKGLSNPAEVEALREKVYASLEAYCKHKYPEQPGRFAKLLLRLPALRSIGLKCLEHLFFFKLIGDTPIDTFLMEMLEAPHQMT
As to the kind of experiment: Co-transfection assay (LXRE luciferase reporter), LXRβ. Particulars: for EC50: CV-1 cells transfected with pCMX-hLXRβ and LXREx1-Tk-Luciferase, 20 hours incubation; for Emax: LXRβ co-transfection, relative to high control 1-(2,4-difluorobenzyl)-2-oxo-6-(4-phenoxyphenyl)-4-(trifluoromethyl)-1,2-dihydropyridine-3-carbonitrile, read-out: % Efficacy. Format: cell-based. The essentials:
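Luciferase signal from an LXREx1-Tk reporter was measured after transfected CV-1 cells (full-length hLXRβ, endogenous RXR) were treated with compounds for 20 h at 37 °C, ≤0.5% DMSO. EC50 came from four-parameter fits of 11-point ½-log curves; % efficacy versus a reference agonist maximum.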

As usually defined, the EC50 is the concentration at which the effect is half-maximal.

Turning to `Cc1nc(-c2cc(-c3ccc(C)c(S(C)(=O)=O)c3)ccc2-n2cc(C(F)(F)F)nc2C)c(-c2ccc(C(F)(F)F)nc2Cl)o1` [Example 476, 5-(2-chloro-6-(trifluoromethyl)pyridin-3-yl)-2-methyl-4-(4′-methyl-4-(2-methyl-4-(trifluoromethyl)-1H-imidazol-1-yl)-3′-(methylsulfonyl)biphenyl-3-yl)oxazole], the response was half-maximal at 0.726 µM (EC50) and the Emax was found to be 39%.

As for `Cc1nc(-c2cc(-c3cc(F)c(CO)c(S(C)(=O)=O)c3)ccc2-n2cc(C(F)(F)F)nc2C)c(-c2ccc(C(F)(F)F)nc2Cl)o1` [Example 477, (3′-(5-(2-chloro-6-(trifluoromethyl)pyridin-3-yl)-2-methyloxazol-4-yl)-3-fluoro-4′-(2-methyl-4-(trifluoromethyl)-1H-imidazol-1-yl)-5-(methylsulfonyl)biphenyl-4-yl)methanol], the concentration giving a half-maximal response (EC50) was 0.271 µM and the Emax was found to be 66%.

Regarding `CCc1nc(-c2cc(-c3cccc(S(C)(=O)=O)c3)ccc2-n2cc(C(F)(F)F)nc2C)c(-c2ccc3c(c2)OC(F)(F)O3)o1` [Example 478, 5-(2,2-difluorobenzo[d][1,3]dioxol-5-yl)-2-ethyl-4-(4-(2-methyl-4-(trifluoromethyl)-1H-imidazol-1-yl)-3′-(methylsulfonyl)biphenyl-3-yl)oxazole], the EC50 came to 0.032 µM and the Emax came to 89%.

`CCc1nc(-c2cc(-c3cc(F)c(CO)c(S(C)(=O)=O)c3)ccc2-n2cc(C(F)(F)F)nc2C)c(-c2ccc3c(c2)OC(F)(F)O3)o1` [Example 479, (3′-(5-(2,2-difluorobenzo[d][1,3]dioxol-5-yl)-2-ethyloxazol-4-yl)-3-fluoro-4′-(2-methyl-4-(trifluoromethyl)-1H-imidazol-1-yl)-5-(methylsulfonyl)biphenyl-4-yl)methanol]: the EC50 was 0.03 µM and the Emax worked out at 81%.

Turning to `Cc1nc(C(F)(F)F)cn1-c1ccc(-c2cccc(S(C)(=O)=O)c2)cc1-c1nc(C(C)C)oc1-c1ccc2c(c1)OC(F)(F)O2` [Example 480, 5-(2,2-difluorobenzo[d][1,3]dioxol-5-yl)-2-isopropyl-4-(4-(2-methyl-4-(trifluoromethyl)-1H-imidazol-1-yl)-3′-(methylsulfonyl)biphenyl-3-yl)oxazole], the EC50 stood at 0.063 µM and the Emax amounted to 74%.

Take `Cc1nc(C(F)(F)F)cn1-c1ccc(-c2cc(F)c(CO)c(S(C)(=O)=O)c2)cc1-c1nc(C(C)C)oc1-c1ccc2c(c1)OC(F)(F)O2` [Example 481, (3′-(5-(2,2-difluorobenzo[d][1,3]dioxol-5-yl)-2-isopropyloxazol-4-yl)-3-fluoro-4′-(2-methyl-4-(trifluoromethyl)-1H-imidazol-1-yl)-5-(methylsulfonyl)biphenyl-4-yl)methanol]: the EC50 came out at 0.054 µM and the Emax stood at 66%.

On to `Cc1nc(C(F)(F)F)cn1-c1ccc(-c2cccc(S(C)(=O)=O)c2)cc1-c1nc(C2CC2)oc1-c1ccc2c(c1)OC(F)(F)O2` [Example 482, 2-cyclopropyl-5-(2,2-difluorobenzo[d][1,3]dioxol-5-yl)-4-(4-(2-methyl-4-(trifluoromethyl)-1H-imidazol-1-yl)-3′-(methylsulfonyl)biphenyl-3-yl)oxazole], for which the EC50 worked out at 0.04 µM and the Emax was determined as 71%.

Regarding `Cc1nc(C(F)(F)F)cn1-c1ccc(-c2cc(F)c(CO)c(S(C)(=O)=O)c2)cc1-c1nc(C2CC2)oc1-c1ccc2c(c1)OC(F)(F)O2` [Example 483], the concentration giving a half-maximal response (EC50) stood at 0.04 µM and the Emax worked out at 66%.

As to `Cc1nc(-c2cc(-c3cccc(S(C)(=O)=O)c3)ccc2-n2cc(C(F)(F)F)nc2C)c(-c2ccc(Cl)cc2F)o1` [Example 484, 5-(4-chloro-2-fluorophenyl)-2-methyl-4-(4-(2-methyl-4-(trifluoromethyl)-1H-imidazol-1-yl)-3′-(methylsulfonyl)biphenyl-3-yl)oxazole], the EC50 was found to be 0.048 µM and the Emax amounted to 57%.

As to `Cc1nc(-c2cc(-c3cc(F)c(CO)c(S(C)(=O)=O)c3)ccc2-n2cc(C(F)(F)F)nc2C)c(-c2ccc(Cl)cc2F)o1` [Example 485, (3′-(5-(4-chloro-2-fluorophenyl)-2-methyloxazol-4-yl)-3-fluoro-4′-(2-methyl-4-(trifluoromethyl)-1H-imidazol-1-yl)-5-(methylsulfonyl)biphenyl-4-yl)methanol], the response was half-maximal at 0.032 µM (EC50) and the Emax is 55%.

Take `Cc1nc(-c2cc(-c3cccc(S(C)(=O)=O)c3)ccc2-n2cc(C(F)(F)F)nc2C)c(-c2ccc(Cl)cc2Cl)o1` [Example 486, 5-(2,4-dichlorophenyl)-2-methyl-4-(4-(2-methyl-4-(trifluoromethyl)-1H-imidazol-1-yl)-3′-(methylsulfonyl)biphenyl-3-yl)oxazole]: the EC50 was 0.109 µM and the Emax is 89%.

Take `Cc1nc(-c2cc(-c3cc(F)c(CO)c(S(C)(=O)=O)c3)ccc2-n2cc(C(F)(F)F)nc2C)c(-c2ccc3c(c2)C(O)C(F)(F)O3)o1` (stereo not drawn) [Example 487, 2,2-difluoro-5-(4-(3′-fluoro-4′-(hydroxymethyl)-4-(2-methyl-4-(trifluoromethyl)-1H-imidazol-1-yl)-5′-(methylsulfonyl)biphenyl-3-yl)-2-methyloxazol-5-yl)-2,3-dihydrobenzofuran-3-ol]: the response was half-maximal at 0.815 µM (EC50) and the Emax turned out to be 59%.

As for `Cc1nc(-c2cc(-c3cc(F)c(CO)c(S(C)(=O)=O)c3)ccc2-n2cc(C(F)(F)F)nc2C)c(-c2ccc(Cl)cc2Cl)o1` [Example 488, (3′-(5-(2,4-dichlorophenyl)-2-methyloxazol-4-yl)-3-fluoro-4′-(2-methyl-4-(trifluoromethyl)-1H-imidazol-1-yl)-5-(methylsulfonyl)biphenyl-4-yl)methanol], it took 0.017 µM to reach a half-maximal effect (EC50) and the Emax was found to be 66%.

Consider `Cc1nc(C(N)=O)cn1-c1ccc(-c2cccc(S(C)(=O)=O)c2)cc1-c1nc(C2CC2)oc1-c1ccc2c(c1)OC(F)(F)O2` [Example 489, 1-(3-(2-cyclopropyl-5-(2,2-difluorobenzo[d][1,3]dioxol-5-yl)oxazol-4-yl)-3′-(methylsulfonyl)biphenyl-4-yl)-2-methyl-1H-imidazole-4-carboxamide], for which a half-maximal response (EC50) required 1.08 µM and the Emax was 35%.

Regarding `Cc1nc(C(N)=O)cn1-c1ccc(-c2cc(F)c(CO)c(S(C)(=O)=O)c2)cc1-c1nc(C2CC2)oc1-c1ccc2c(c1)OC(F)(F)O2` [Example 490, 1-(3-(2-cyclopropyl-5-(2,2-difluorobenzo[d][1,3]dioxol-5-yl)oxazol-4-yl)-3′-fluoro-4′-(hydroxymethyl)-5′-(methylsulfonyl)biphenyl-4-yl)-2-methyl-1H-imidazole-4-carboxamide], the EC50 amounted to 0.076 µM and the Emax is 54%.

Turning to `Cc1ccc(-c2oc(C)nc2-c2cc(-c3cccc(S(C)(=O)=O)c3)ccc2-n2cc(C(F)(F)F)nc2C)cc1` [Example 491, 2-methyl-4-(4-(2-methyl-4-(trifluoromethyl)-1H-imidazol-1-yl)-3′-(methylsulfonyl)-[1,1′-biphenyl]-3-yl)-5-(p-tolyl)oxazole], the EC50 came to 0.063 µM and the Emax was determined as 71%.

With `Cc1ccc(-c2oc(C)nc2-c2cc(-c3cc(F)c(CO)c(S(C)(=O)=O)c3)ccc2-n2cc(C(F)(F)F)nc2C)cc1` [Example 492, (3-fluoro-4′-(2-methyl-4-(trifluoromethyl)-1H-imidazol-1-yl)-3′-(2-methyl-5-p-tolyloxazol-4-yl)-5-(methylsulfonyl)biphenyl-4-yl)methanol], the response was half-maximal at 0.034 µM (EC50) and the Emax amounted to 64%.

For `Cc1nc(-c2cc(-c3cccc(S(C)(=O)=O)c3)ccc2-n2cc(C(F)(F)F)nc2C)c(-c2ccc3c(c2)OC(F)(F)O3)o1` [Example 493, 5-(2,2-difluorobenzo[d][1,3]dioxol-5-yl)-2-methyl-4-(4-(2-methyl-4-(trifluoromethyl)-1H-imidazol-1-yl)-3′-(methylsulfonyl)biphenyl-3-yl)oxazole], the response was half-maximal at 0.04 µM (EC50) and the Emax came to 95%.
